According to paper PMC9862305 (Plants, 2023):
In brackets after ≈: the same amount, converted by molar mass. Like-named read-outs stand apart in the source and are kept apart here.

Legend:
[1] = target: T1, Acetylcholinesterase (AChE) from Electrophorus electricus (Electrophorus electricus, UniProt O42275); assay: biochemical
T1 construct: purchased Sigma-Aldrich type VI-S (catalogue number not given)
Experimental: (§1) The cholinesterase inhibitory potentials of the isolated compounds were evaluated via a spectrophotometric approach, which was adapted by Ellman’s method. […] Enzyme inhibition is a beneficial approach in order to evaluate the pharmacological potential of herbal remedies and pure substances. The inhibition of the AChE and BChE enzymes has been linked to the alleviation of symptoms associated with memory impairment in AD [10]. […] Methoxylation may decrease or increase activity depending on the type of flavonoids (flavones, flavanones, or isoflavones). […] Moreover, the hydrogenation of the double bond next to the carbonyl carbon in the structure of flavanones also decreases their affinity for cholinesterase inhibitory activity. However, there are some exceptions to the aforementioned observation of structure–activity relationship in the literature.
(§2) Acetylcholinesterase (AchE) from Electrophorus electricus (electrical eels, type VI-S, 200–1000 unit/mg), Butyrylcholinesterase from equine serum (lyophilized powder ≥ 500 units/mg protein), substrate acetylthiocholine iodide (ATCI), S-butyrylthiocholine iodide (BTCI), sodium phosphate monobasic, and sodium phosphate dibasic were purchased from Sigma-Aldrich (St. Louis, MO, USA). The coloring agent 5,5-dithio-bis-[2-nitrobenzoic acid] (DTNB), and β-sitosterol were obtained from Acros Organics (Acros Organics, NJ, USA). […] Silica gel (Kieselgel 60, 230–400 mesh atm) was purchased from Merck (Darmstadt, Germany). The solvents were of analytical grade and used as received.
(§3) Each run was carried out in triplicate on three consecutive days. Anti-BChE assays were performed using the same procedures described above but using BChE from equine serum (lyophilized powder ≥ 500 units/mg protein) instead of AChE and BTCI instead of ACTI. The final absorbance of each tested sample was calculated by subtracting the absorbance of their respective blank without enzyme addition. […] Then, the IC50 values of all tested samples and standards were calculated from the curve of the % inhibition versus concentration. (1) % Inhibition=Abs −ve control−Abs test sample/Abs −ve control×100

[2] = target: T2, Butyrylcholinesterase from equine serum (Equus caballus, UniProt P81908); assay: biochemical
T2 construct: using BChE from equine serum (lyophilized powder ≥ 500 units/mg protein); purchased Sigma-Aldrich; host or cells: equine serum
Experimental: as §1, §2, §3

AChE = details: cited from earlier work; for IC50 (AChE inhibitory activity): individual compound
BChE = details: cited from earlier work
[3] = isolated compounds, Table 4, read-out: AChE (IC50)
[4] = read-out: AChE (IC50) µg/mL (converted)
[5] = AChE (IC50) µM, isolated compounds, Table 4
[6] = AChE (IC50) µg/mL, isolated compounds, Table 4
[7] = BChE (IC50) µM, isolated compounds, Table 4
[8] = BChE (IC50) µg/mL, isolated compounds, Table 4
[9] = luteolin isolated from Globularia meridionalis

T2 sequence (P81908 whole entry): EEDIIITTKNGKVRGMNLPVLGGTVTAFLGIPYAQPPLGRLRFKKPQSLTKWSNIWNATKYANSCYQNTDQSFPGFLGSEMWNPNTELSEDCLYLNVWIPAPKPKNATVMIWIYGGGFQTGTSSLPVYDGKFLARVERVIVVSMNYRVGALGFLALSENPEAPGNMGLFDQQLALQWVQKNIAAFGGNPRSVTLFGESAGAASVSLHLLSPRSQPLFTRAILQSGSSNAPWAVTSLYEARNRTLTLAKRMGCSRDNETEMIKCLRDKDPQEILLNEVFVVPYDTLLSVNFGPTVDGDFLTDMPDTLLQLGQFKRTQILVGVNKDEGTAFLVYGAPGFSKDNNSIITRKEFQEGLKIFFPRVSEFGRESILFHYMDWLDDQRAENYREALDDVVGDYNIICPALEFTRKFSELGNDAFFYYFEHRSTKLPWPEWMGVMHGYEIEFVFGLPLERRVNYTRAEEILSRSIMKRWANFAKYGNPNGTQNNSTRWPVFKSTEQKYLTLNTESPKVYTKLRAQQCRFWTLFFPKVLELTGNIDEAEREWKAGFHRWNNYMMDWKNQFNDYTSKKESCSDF
T1 sequence (O42275 24-633): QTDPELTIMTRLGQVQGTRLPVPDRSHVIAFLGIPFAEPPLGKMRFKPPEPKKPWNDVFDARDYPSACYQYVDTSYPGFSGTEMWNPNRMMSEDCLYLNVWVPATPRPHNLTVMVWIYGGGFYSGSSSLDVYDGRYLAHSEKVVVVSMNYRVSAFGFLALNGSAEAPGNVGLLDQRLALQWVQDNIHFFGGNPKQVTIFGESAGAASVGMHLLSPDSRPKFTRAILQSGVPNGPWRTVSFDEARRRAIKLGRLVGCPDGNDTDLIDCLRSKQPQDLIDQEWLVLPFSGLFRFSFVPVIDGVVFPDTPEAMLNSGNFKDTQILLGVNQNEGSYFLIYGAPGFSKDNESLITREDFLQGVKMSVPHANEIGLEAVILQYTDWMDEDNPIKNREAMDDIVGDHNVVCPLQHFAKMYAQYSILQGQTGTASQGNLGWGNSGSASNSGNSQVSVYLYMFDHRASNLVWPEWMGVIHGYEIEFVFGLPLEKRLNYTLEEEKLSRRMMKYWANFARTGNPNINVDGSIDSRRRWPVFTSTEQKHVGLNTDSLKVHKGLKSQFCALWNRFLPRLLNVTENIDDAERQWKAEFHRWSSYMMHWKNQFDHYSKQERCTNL

Compound: CCCCCCCCCCCCCCCCCCCCOC(=O)CCCCCCCCCCCCCCCCCCC [Compound 1, Arachidyl arachidate]
- IC50 [1, 3]: 248.6 ± 2.24 µM
- IC50 [1, 4]: 249 µM
- IC50 ([2]; read-out: BChE (IC50) µg/mL): > 253 µM

Compound: O=c1cc(-c2ccc(O)c(O)c2)oc2cc(O)cc(O)c12 [Compound 2, Luteolin]
- IC50 [1, 5]: 20.5 ± 1.1 µM
- IC50 [1, 6]: 20.5 µM
- IC50 [2, 7]: 46.2 ± 2.2 µM
- IC50 [2, 8]: 46.2 µM
- IC50 for AChE (AChE; [9]): 25.2 ± 0.4 µg/mL
- IC50 (AChE; luteolin isolated from Rhizoma drynariae, read-out: AChE inhibition potential): 17.3 ± 0.23 µM
- IC50 for BuChE (BChE; [9]): 37.2 ± 0.5 µg/mL

Compound: CC[C@H](CC[C@@H](C)[C@H]1CC[C@H]2[C@@H]3CC=C4C[C@@H](O)CC[C@]4(C)[C@H]3CC[C@]12C)C(C)C [Compound 3, β-sitosterol]
- IC50 [1, 5]: 137 ± 8.66 µM
- IC50 [1, 6]: 137 µM
- IC50 [2, 7]: 157 ± 7.26 µM
- IC50 [2, 8]: 157 µM
- IC50 (AChE inhibitory activity) (AChE): 55 µg/mL (≈ 133 µM)

Compound: CC[C@H](/C=C/[C@@H](C)[C@H]1CC[C@H]2[C@@H]3CC=C4C[C@@H](O)CC[C@]4(C)[C@H]3CC[C@]12C)C(C)C [Compound 4, Stigmasterol]
- IC50 (AChE inhibitory activity) (AChE): 63 µg/mL (≈ 153 µM)

Compound: O=C(O)/C=C/c1ccccc1 [Compound 5, Cinnamic acid]
- IC50 [2, 7]: 373 ± 16.4 µM
- IC50 [2, 8]: 373 µM

Compound: O=C(O)C=Cc1ccc(O)cc1 [Compound 6, 4-Hydroxycinnamic acid]
- IC50 [1, 5]: 43.4 ± 0.61 µM
- IC50 [1, 6]: 43.4 µM
- IC50 [2, 7]: 409 ± 14.8 µM
- IC50 [2, 8]: 409 µM

Compound: O=Cc1ccc(CO)o1 [Compound 7]
- IC50 [1, 3]: 158 ± 3.49 µM
- IC50 [1, 4]: 158 µM
- IC50 ([2]; read-out: BChE (IC50) µg/mL): > 793 µM

Compound: COc1ccc(-c2cc(=O)c3c(O)cc(O[C@@H]4O[C@H](CO)[C@H](O)[C@H](O)[C@H]4O)cc3o2)cc1 [acacetin-7-O-beta-D-galactopyranoside]
- IC50 (AChE; read-out: IC50): 6.7 µM

Compound: COc1ccc(-c2cc(=O)c3c(O)cc(O)cc3o2)cc1 [acacetin]
- IC50 (AChE; read-out: IC50): 65.3 µM

Compound: O=c1cc(-c2ccc(O)cc2)oc2cc(O)cc(O)c12 [apigenin]
- IC50 (AChE; read-out: IC50 (AChE)): 34.4 ± 2.41 µM

Compound: O=c1cc(-c2ccccc2)oc2cc(O)c(O)c(O)c12 [baicalein]
- IC50 (AChE; read-out: IC50 (AChE)): 46 ± 3.44 µM

Compound: Omifoate A [reference compound]
- IC50 for AChE (AChE): 6.51 µg/mL
- IC50 for BChE (BChE): 9.07 µg/mL
